Results published in patent publication US20240043456A1 (Unity Biotechnology, Inc., priority 2020, published 2024).

Assays:
[1] = Chemical stability of free acid and salts during salt preparation; assay type: physicochemical
[2] = 12-month stability test, HPLC; assay type: physicochemical; set-up: HPLC result, RRT 1.09: unit not given beside the values; conditions: for HPLC result, RRT 0.86 / HPLC result, RRT 0.94 / HPLC result, RRT 1 / HPLC result, RRT 1.05 / HPLC result, RRT 1.09 / HPLC result, RRT 1.15 / HPLC result, RRT 1.27 / HPLC result, RRT 1.29 / HPLC result, RRT 1.65: 2-8° C.

## Nc1cc(Cl)nc(C(=O)[O-])c1Cl.[K+] [potassium salt]
[1]
  stability of the salt: unstable

## (R)-5-(4-chlorophenyl)-1-isopropyl-2-methyl-4-(3-(4-(4-((4-((1-(phenylthio)-4-(4-((phosphonooxy)methyl)piperidin-1-yl)butan-2-yl)amino)-3-((trifluoromethyl)sulfonyl)phenyl)sulfonamido)phenyl)piperazin-1-yl)phenyl)-1H-pyrrole-3-carboxylic acid meglumine salt
[2]; 1 month
  HPLC result, RRT 0.86: 0.05
  HPLC result, RRT 0.94: 0.07
  HPLC result, RRT 1: 99.4
  HPLC result, RRT 1.05: <0.05
  HPLC result, RRT 1.09: 0.07
  HPLC result, RRT 1.15: <0.05
  HPLC result, RRT 1.27: <0.05
  HPLC result, RRT 1.29: 0.38
[2]; 2 months
  HPLC result, RRT 0.86: 0.05
  HPLC result, RRT 0.94: 0.07
  HPLC result, RRT 1: 99.4
  HPLC result, RRT 1.05: <0.05
  HPLC result, RRT 1.09: 0.08
  HPLC result, RRT 1.15: <0.05
  HPLC result, RRT 1.27: <0.05
  HPLC result, RRT 1.29: 0.40
[2]; 2 weeks
  HPLC result, RRT 0.86: <0.05
  HPLC result, RRT 0.94: 0.07
  HPLC result, RRT 1: 99.4
  HPLC result, RRT 1.05: <0.05
  HPLC result, RRT 1.09: 0.07
  HPLC result, RRT 1.15: <0.05
  HPLC result, RRT 1.27: <0.05
  HPLC result, RRT 1.29: 0.38
  HPLC result, RRT 1.65: <0.05
[2]; 3 months
  HPLC result, RRT 0.86: 0.09
  HPLC result, RRT 0.94: <0.05
  HPLC result, RRT 1: 99.5
  HPLC result, RRT 1.05: <0.05
  HPLC result, RRT 1.09: 0.08
  HPLC result, RRT 1.15: <0.05
  HPLC result, RRT 1.27: <0.05
  HPLC result, RRT 1.29: 0.36
  HPLC result, RRT 1.65: <0.05
[2]; 6 months
  HPLC result, RRT 0.86: 0.05
  HPLC result, RRT 0.94: 0.06
  HPLC result, RRT 1: 99.3
  HPLC result, RRT 1.05: 0.05
  HPLC result, RRT 1.09: 0.06
  HPLC result, RRT 1.15: <0.05
  HPLC result, RRT 1.27: <0.05
  HPLC result, RRT 1.29: 0.44
  HPLC result, RRT 1.65: <0.05
[2]; 9 months
  HPLC result, RRT 0.86: 0.08
  HPLC result, RRT 0.94: 0.06
  HPLC result, RRT 1: 99.2
  HPLC result, RRT 1.05: 0.07
  HPLC result, RRT 1.09: 0.09
  HPLC result, RRT 1.15: <0.05
  HPLC result, RRT 1.27: 0.1
  HPLC result, RRT 1.29: 0.41
  HPLC result, RRT 1.65: <0.05
[2]; 12 months
  HPLC result, RRT 0.86: 0.08
  HPLC result, RRT 0.94: 0.06
  HPLC result, RRT 1: 99.4
  HPLC result, RRT 1.05: <0.05
  HPLC result, RRT 1.09: <0.05
  HPLC result, RRT 1.15: 0.07
  HPLC result, RRT 1.27: 0.09
  HPLC result, RRT 1.29: 0.14
  HPLC result, RRT 1.65: 0.18
[2]; T0
  HPLC result, RRT 0.86: 0.06
  HPLC result, RRT 0.94: 0.07
  HPLC result, RRT 1: 99.6
  HPLC result, RRT 1.05: <0.05
  HPLC result, RRT 1.09: 0.06
  HPLC result, RRT 1.15: <0.05
  HPLC result, RRT 1.27: <0.05
  HPLC result, RRT 1.29: 0.22
  HPLC result, RRT 1.65: <0.05
[2]; 12 month test period
  change in purity over test period (FIG. 20): little to no change
[1]; under experimental conditions
  chemical stability: chemically stable
